Assay results reported in patent US20170196893A1, “TREATMENT OF INFLAMMATORY DEMYELINATING DISEASE WITH AGONISTS OF FARNESOID X RECEPTOR” (The Board of Trustees of the Leland Stanford Junior …, priority 2016, published 2017).

What was measured:
Type in all cases: in vivo, mouse
[1] = test system: splenocytes (CD4+ T cells, CD8+ T cells, CD19+ B cells); assay: FACS analysis of splenocytes harvested from treated MOG35-55-immunized mice; conditions: eleven days oral dosing; for BTLA expression on CD4+ T cells: vehicle 2.87%; for PD1 expression on CD4+ T cells: vehicle 3.5%; for PD-L1 expression on CD4+ T cells: vehicle 8.32%; for BTLA expression on CD19+ B cells: vehicle 12.21%; for BTLA expression on CD8+ T cells: vehicle (WT) 0.78%; for PD1 expression on CD8+ T cells: vehicle (WT) 1.12%; for PD-L1 expression on CD8+ T cells: vehicle (WT) 5.63%; for CD3+CD8+ T cells: vehicle (WT) 6.75%; for CD3+CD4+ T cells: vehicle (WT) 8.34%; for PD1 expression on CD19+ B cells: vehicle (WT) 11.58%; for PD-L1 expression on CD19+ B cells: vehicle (WT) 12.21%; for CD19+B220+ B cells: vehicle (WT) 42.82%; for VLA-4 (CD29+CD49d+) expression on T cells: vehicle (WT) 44.12%; for VLA-4 (CD29+CD49d+) expression on B cells: vehicle (WT) 56.35%
Excerpt: Flow cytometry Cells were stained according to standard protocols, run on a FACScan flow cytometer (BD Biosciences), and analysed with CellQuest software (BD Immunocytometry Systems). The antibody conjugates used were PerCPCy5.5 anti-CD3, FITC anti-CD4, PE anti-CD8, PE anti-B220, PerCp-Cy5.5 anti-B220, FITC anti-CD19, PE anti-PD1, PE anti-PD-L1, PE anti-BTLA, PE anti-CD29, and FITC anti-CD49d (BD Pharmingen & eBioscience)

[2] = test system: experimental autoimmune encephalomyelitis (EAE); assay: Active EAE, clinical scores of mice with established EAE; conditions: 5 mg/kg daily oral, 6-ECDCA vs CDCA vs vehicle (FIG. 3B)
splenocytes = assay: Cytokine production (ELISA) by splenocytes harvested from treated mice, restimulated with MOG35-55; conditions: daily oral treatment of established EAE (FIG. 3D)
Experimental: (§1) Proliferation and cytokine assays. Splenocytes and lymph nodes were harvested and stimulated with increasing concentrations of MOG35-55 for a total of 72 hours. For assessment of proliferation, 1 μCi of ^3H-thymidine was added to each well for the final 18-24 hours of culture, and incorporation of radioactivity was measured by using a Betaplate scintillation counter. Cytokine assays were performed on culture supernatants after 72 hours of culture by using the IL-2, IL-6, IFNgamma, and TNF BD OptEIA™ Mouse ELISA kits (BD Biosciences) or Mouse IL-17 DuoSet ELISA Development kit (R&D Systems).

[3] = Serum lipid panel analysis of treated MOG35-55-immunized mice fasted overnight; conditions: eleven days of oral dosing after EAE immunization, overnight fast (FIG. 4A)
Excerpt: Serum Lipid Panel Analysis. Serum from mice fasted overnight was submitted to the Diagnostic Laboratory at Stanford University, Department of Comparative Medicine for a full lipid panel analysis.

[4] = test system: experimental autoimmune encephalomyelitis (EAE); assay: Adoptive transfer EAE with cells of treated donor mice; conditions: donor mice treated eleven days, cells restimulated 72 h with MOG35-55 and rIL-12; vs vehicle treated donors (FIG. 4D)
Experimental: Mice and EAE Induction. C57BL/6J and FXRKO (B6.129x1(FVB)-Nr1h4tm1Gonz/J, #0007214) female mice were purchased from the Jackson Laboratory. Animal experiments were approved by, and performed in compliance with, the National Institute of Health guidelines of the Institutional Animal Care and Use Committee at Stanford University. For induction of active and adoptive transfer of EAE, 8- to 12-week-old female mice were immunized subcutaneously with 100 μg of MOG35-55 emulsified in complete Freund's adjuvant (CFA), consisting of incomplete Freund's Adjuvant and 0.4 mg of heat inactivated Mycobacterium tuberculosis, strain H37 RA (Difco Laboratories). On days 0 and 2, mice were also injected intravenously or intraperitoneally with 400 ng pertussis toxin in 0.2 ml 1×PBS. Adoptive transfer requires harvesting lymph nodes and spleens ten days after immunization. Combined lymphocytes and splenocytes are cultured in bulk, at 5×10^7 cells/ml for seventy-two hours in the presence of MOG35-55 (20 μg/ml) and rIL-12 (10 ng/ml, R&D systems). Cells are harvested and washed twice before transfer of 3×10^7 cells in 0.2 ml 1×PBS into naive 6-7 week old female mice, intraperitoneally. Clinical disease was monitored daily using the following scoring system: 0, no disease; 1, limp tail; 2, hind limb weakness; 3, hind limb paralysis; 4, hind limb and forelimb paralysis; 5, death.

[5] = test system: MOG35-55-specific lymphocytes; assay: 72 h proliferation assay (3H-thymidine) of splenocytes/lymph node cells harvested from treated mice, restimulated with MOG35-55
Experimental: as §1

Row | SMILES | BTLA expression on CD4+ T cells [1] [%] | PD1 expression on CD4+ T cells [1] [%] | PD-L1 expression on CD4+ T cells [1] [%] | BTLA expression on CD19+ B cells [1] [%] | BTLA expression on CD8+ T cells [1] [%] | PD1 expression on CD8+ T cells [1] [%] | PD-L1 expression on CD8+ T cells [1] [%] | CD3+CD8+ T cells [1] [%] | CD3+CD4+ T cells [1] [%] | PD1 expression on CD19+ B cells [1] [%] | PD-L1 expression on CD19+ B cells [1] [%] | CD19+B220+ B cells [1] [%] | VLA-4 (CD29+CD49d+) expression on T cells [1] [%] | VLA-4 (CD29+CD49d+) expression on B cells [1] [%] | further results
1 | CC[C@H]1[C@@H](O)[C@@H]2[C@H](CC[C@]3(C)[C@@H]([C@H](C)CCC(=O)O)CC[C@@H]23)[C@@]2(C)CC[C@@H](O)C[C@@H]12 [6-ECDCA, 6α-Ethyl-chenodeoxycholic acid] | 2.38 | 2.74 | 6.59 | 6.23 | 1.21 | 1.82 | 9.5 | 12.22 | 7.33 | 12.3 | 11.34 | 30.69 | 36.67 | 51.98 | –
2 | C[C@H](CCC(=O)O)[C@H]1CC[C@H]2[C@@H]3[C@H](O)C[C@@H]4C[C@H](O)CC[C@]4(C)[C@H]3CC[C@]12C [CDCA, Chenodeoxycholic acid] | 2.77 | 2.64 | 8.43 | 6.76 | 1.92 | 1.63 | 12.3 | 12.92 | 7.89 | 9.58 | 3.79 | 36.07 | 33.78 | 49.16 | Clinical EAE score (average EAE disease grade) [2]: clinical disease was ameliorated; IFN-gamma production (splenocytes): decreased; IL-6 production (splenocytes): decreased; IL-17 production (splenocytes): not significantly altered; TNF production (splenocytes): decreased; Serum HDL levels [3]: decreased; Serum cholesterol levels [3]: decreased; Serum low-density lipoprotein (LDL) levels [3]: not significantly altered; Serum triglycerides [3]: not significantly altered; Clinical EAE scores of naive recipient mice [4]: significantly less severe disease; T cell recall responses to MOG35-55 ([5]; daily oral treatment of established EAE (FIG. 3C)): significantly suppressed; Recall responses of MOG35-55-specific lymphocytes (proliferation) ([5]; eleven days of oral dosing, combined splenocytes and lymphocytes, vs vehicle (FIG. 4B)): greatly reduced
